Measured values taken from article PMC7425896, “Polypeptides derived from α-Synuclein binding partners to prevent α-Synuclein fibrils interaction with and take-up by cells” (PLoS ONE, 2020).
No end group written: not given here.

Key:
[1] = Secondary structure content by far-UV circular dichroism; format: physicochemical; settings: far-UV CD, 20°C, deconvoluted with Dichroweb
Procedure: Far-UV CD spectra were recorded at 20°C using a JASCO J-810 dichrograph equipped with a thermostated cell holder using a 0.01-cm path length quartz cuvette. Each spectrum was the average of 10 acquisitions recorded in the 260–195 nm range with 0.5-nm steps, a bandwidth of 2 nm, and at a speed of 50 nm/min. All spectra were buffer corrected. The spectra were deconvoluted with the Dichroweb software.

αSyn fibrils [2] = target: T1, αSyn fibrils (Homo sapiens, UniProt P37840); test: Binding of peptides and Surfen to preformed αSyn fibrils, sedimentation and reversed phase chromatography; settings: αSyn fibrils 100 μM; for Bound peptides / Bound peptides (%) / binding to αSyn fibrils (in words): ligand 200 μM, 1h RT, PBS; for Bound peptides / Bound peptides (%): pellet 20,000g, C18 reversed phase chromatography, absorbance 215 nm (peptides) or 260 nm (Surfen); for binding to αSyn fibrils (in words) / Kd: sedimentation, reversed phase chromatography; for Kd: peptide 0–200 μM
T1 construct: made in house
Procedure: Hsc70-derived peptides, the […] peptide or the Surfen molecule (0 or 200 μM) were incubated with or without αSyn fibrils (100 μM) for 1h at RT in PBS. The samples were centrifuged for 30 min in a […] tabletop centrifuge (Eppendorf) at 20,000g and 20°C. The pellets were first washed by 100 μL of 0.1% TFA and then dissolved for 30 min in 30 μL of pure TFA. After TFA evaporation, the samples were resuspended in 0.1% TFA and stored at -20°C. The composition of each sample was assessed by phase reverse chromatography on a C18 column (Jupiter C18 300A from Phenomenex, Torrance, CA, USA). The solvant composition was 0.1% TFA for solvent A and 80% acetonitrile, 0.09% TFA for solvent B, and the flow was set at 200 μl/min. The column was equilibrated in 5% B. The peptides were eluted by a gradient from 5% to 80% of solvent B. The amount of αSyn-associated ligand present in each sample was determined by comparing their respective absorbance at 215 nm (peptides) or 260 nm (Surfen) to the absorbance of a known amount of the same ligand. For KD measurements the same experiment was performed using a range of peptide concentrations (0-200 μM).

monomeric αSyn = test: Monomeric αSyn assembly into fibrils monitored by Thioflavin T binding; format: biochemical, human; settings: soluble αSyn 50 μM, peptide 50 μM (equimolar), PBS, 37°C, 600 rpm, 4 independent experiments
Procedure: αSyn (50 μM monomer concentration) was incubated in the absence or in the presence of peptides (50 μM) in PBS at 37°C under continuous shaking in an Eppendorf Thermomixer set at 600 rpm. Aliquots (10 μL) were withdrawn at different time intervals from the assembly reaction and mixed to a Thioflavin T solution (10 μM; 400 μL). Thioflavin T fluorescence was recorded with a Cary Eclipse spectrofluorimeter (Varian Medical Systems Inc.) using excitation and emission wavelengths set at 440 and 480 nm, respectively. The nature of the fibrils obtained at the end of the aggregation reaction was assessed by electron microscopy as described above. The proportion of αSyn assembled into fibrils was assessed by ultracentifugation in a TL100 tabletop centrifuge (Beckman) at 50,000g and 20°C for 30 min and analyse of the supernatant and pellet fractions by SDS-PAGE. Following Coomassie staining / destaining the gels were visualized using a ChemiDocTM MP (BioRad). Images were processed and quantified using Image Lab.

Neuro-2a cells [3] = test: Internalization (take-up) of αSyn-Alexa488 fibrils by Neuro-2a cells, 96-well plate assay with Trypan blue quenching; format: cell-based, Murine; settings: Trypan blue quench; for effect of endocytosis inhibitors on αSyn fibrils take-up by Neuro-2a cells: cells exposed 1 hour to chlorpromazine 0–10 μg/ml or EIPA 0–50 μM before αSyn-Alexa488 fibrils 0.5 μM, 4 hours, 5 wells
Procedure: The uptake of Alexa488-labeled αSyn fibrils (0.5 μM equivalent monomer concentration) pre-incubated or not for 30 min at 37°C in DMEM with the ligands (Hsc70, peptides or Surfen) at different concentrations to Neuro-2A cells was also assessed using a 96-well plate assay. The cells cultured on 96-wells plates were incubated with the fibrils, preincubated or not with the ligands for 30 min at 37°C in DMEM, in 5 independent wells. After 4 hours the media was removed and Hoechst (Sigma-Aldrich) diluted at 0.2 μg/ml in serum-free, phenol red-free DMEM was added for 30 min. The cells were washed twice with serum-free, phenol red-free DMEM and 0.1% Trypan Blue (Sigma-Aldrich) was added to quench the fluorescence of plasma membrane-bound Alexa488-labeled αSyn fibrils. For each wells Alexa488 and Hoechst fluorescences were recorded on a Clariostar microplate reader (BMG LABTECH GmbH, Germany).
To assess to role of endocytosis in αSyn fibrils internalization, Neuro-2a cells cultured on 96-wells plates were first incubated with increasing concentrations of chlorpromazine or l’5-N-ethyl-isopropyl-amiloride (EIPA). After 1 hour Alexa488-labeled αSyn fibrils (0.5 μM equivalent monomer concentration) was added. The experiment was then performed as above.

fibrillar αSyn [4] = settings: sedimentation assay; read-out: dissociation constant of Hsc70 for fibrillar αSyn; cited from earlier work
Procedure: We previously brought evidence for Hsc70 interaction with fibrillar αSyn using a sedimentation assay. The dissociation constant we measured was 0.1 μM. Here we confirmed the interaction between Hsc70 and fibrillar αSyn using the same sedimentation assay followed by quantitative analysis of the proteins in the pellet and the supernatant fractions by SDS-PAGE (Fig 1A). […] To determine the affinity of Hsc70 for fibrillar αSyn we incubated preform ...

fibrillar αSyn [5] = test: Sedimentation assay of Hsc70 with fibrillar αSyn, SDS-PAGE of pellet and supernatant; format: binding, human; settings: Hsc70 10 μM, fibrillar αSyn 100 μM, 1h RT, PBS, 50,000g 30 min
Procedure: For binding assay, αSyn fibrils (100 μM) alone, Hsc70 alone (10 μM) or αSyn fibrils and Hsc70 (100 and 10 μM, respectively) were incubated for 1h at RT in PBS. Samples were spun for 30 min at 50,000g and 20°C in a TL100 tabletop ultracentrifuge (Beckman) and the proportion of Hsc70 present in the pellet vs the supernatant was analysed by SDS-PAGE.

Neuro-2a cells [6] = test: Binding of αSyn-Alexa488 fibrils to the plasma membrane of Neuro-2a cells; format: cell-based, Murine; settings: αSyn-Alexa488 fibrils 1 μM pre-incubated with ligand (0–10 μM) in DMEM 30 min 37°C; cells exposed 30 min; % cells with at least 1 fluorescent foci
Procedure: Alexa488-labeled αSyn fibrils (1 μM equivalent monomer concentration) were first incubated for 30 min at 37°C in DMEM without or with the ligands (Hsc70 or the NKApep peptide) at different concentrations. Neuro-2a cells cultured on ibidi-μ-Dishes (ibidi, Martinsried, Germany) were then incubated for 30 min with this mix. Then, the cells were washed and immediately imaged in serum-free, phenol red-free DMEM on a Zeiss Axio Observer Z1 epifluorescence microscope equipped with an Incubator XLmulti S2 RED LS (Carl Zeiss) and an Orca-R2 camera (Hamamatsu) at a 20x magnification. The percentage of cells with bound Alexa488 foci was estimated by randomly counting at least 500 cells in 10–15 fields and the experiments were reproduced independently 3 times. For each field the number of foci was automatically assessed using the software Fiji and an in-house built plugin.

αSyn fibrils [7] = target: T1, αSyn fibrils; test: Filter trap (cellulose acetate filter retardation) assay of ATTO488-labelled Hsc70 and subdomains binding to αSyn fibrils; settings: labelled:unlabelled 1:50, 0–2 μM (domains 0–5 μM), αSyn fibrils 1 μM, PBS, 1h RT, fluorescence, filtered in triplicate, 2 to 3 independent experiments, read-out: KD of ATTO488-labelled polypeptides for αSyn fibrils
Procedure: The KD for Hsc70, SBD, SBDβ and SBD-lid interaction with αSyn fibrils were measured as follow. Hsc70 and its subdomains were first labeled by addition of the aminoreactive fluorescent dye ATTO488 (Invitrogen, Carlsbad, CA, USA) using a protein:dye molar ratio of 1:5. The reaction was stopped by adding Tris-HCl pH 7.5 (20 mM final concentration). The unreacted fluorophore was removed by NAP5 desalting column. Under these conditions the majority of primary amines unaffected by the labelling as 0.05 to 0.08 dye molecules were incorporated on average within Hsc70 or its subdomains, as assessed by absorbance spectroscopy. Binding of ATTO488-labeled polypeptides to fibrillar αSyn was then followed by a filter retardation assay where fibrils and associated proteins are retained on a membrane. The different ATTO488-labeled polypeptides were diluted with their unlabeled counterpart (labeled:unlabeled polypeptides ratio of 1:50) at different final concentrations (0–2 μM) and incubated with or without αSyn fibrils (1 μM) in PBS for 1h at RT. 200 μl of each sample were filtered in triplicate through cellulose acetate membranes (0.2 μm pore size, Millipore Corp., Bedford, MA) using a 48-slot slot-blot filtration apparatus (GE Healthcare). The amount of labeled polypeptide retained on the membrane was visualized using a ChemiDocTM MP (BioRad). Images were processed and quantified using Image Lab.

Molecule	Secondary structure composition other [1] [%]	Secondary structure composition α-helix [1] [%]	Secondary structure composition β-strand [1] [%]	Bound peptides (αSyn fibrils [2]) [µM]	Bound peptides (%) (αSyn fibrils [2])	binding to αSyn fibrils (in words) (αSyn fibrils [2])	also measured
LTGIPPAPRGVPQIE [Hsc-7]	73	10	17	1.2	0.6	did not bind	
FTTYSDNQPGV [Hsc-5]	85	0	15	2.8	1.4	did not bind	
GILNVSAVDKSTGKENKITITN [Hsc-10]	41	46	13	72	36	did bind	Kd (αSyn fibrils [2]): > 100 µM; effect on αSyn assembly into fibrils (monomeric αSyn): accelerated aggregation
CCN(c1nc(N)c(C(=O)N=C(N)N)nc1Cl)C(C)C [EIPA, l’5-N-ethyl-isopropyl-amiloride]							effect of endocytosis inhibitors on αSyn fibrils take-up by Neuro-2a cells (Neuro-2a cells [3]): inhibited in a dose-dependent manner
NMKATVEDEKLQGKINDEDKQKIL [Hsc-3]	84	9	7	1.2	0.6	did not bind	
LSKEDIERMVQEAEKY [Hsc-1]	48	52	0	1.2	0.6	did not bind	
Cc1cc(N)c2cc(NC(=O)Nc3ccc4nc(C)cc(N)c4c3)ccc2n1 [Surfen, reference compound]				176	88	found to bind to αSyn fibrils	effect on αSyn fibrils take-up by Neuro-2a cells (Neuro-2a cells [3]; ligand 2 or 10 μM with Alexa488-labeled αSyn fibrils 1 μM in DMEM 30 min 37°C, cells exposed 2 hours, 3 independent experiments): affected, in a dose-dependent way, their take-up
GKFELTGIPPAPRGVPQIEVT [Hsc-8]	69	7	24	1.6	0.8	did not bind	
Hsc70: molecular chaperone Hsc70, recombinant His6-tagged, full-length							Kd (fibrillar αSyn [4]): 0.1 µM; effect on αSyn fibrils take-up by Neuro-2a cells (Neuro-2a cells [3]; αSyn-Alexa488 fibrils 0.5 μM pre-incubated with ligand 0–10 μM in DMEM 30 min 37°C, cells exposed 4 hours, plate reader): significantly affected their take-up; Hsc70 co-sedimentation with pre-formed αSyn fibrils (fibrillar αSyn [5]): pulled into the pellet; effect on αSyn fibrils binding to Neuro-2a cells (Neuro-2a cells [6]): affects αSyn fibrils binding to Neuro-2a cells in a dose-dependent manner
TKQTQTFTTYSDNQPGVLIQVYE [Hsc-6]	80	0	20	68	34	did bind	Kd (αSyn fibrils [2]): > 100 µM; effect on αSyn assembly into fibrils (monomeric αSyn): significantly slowed down αSyn assembly into fibrils
VEDEKLQGKINDED [Hsc-2]	81	6	13	1.0	0.5	did not bind	
CN(C)CCCN1c2ccccc2Sc2ccc(Cl)cc21 [chlorpromazine]							effect of endocytosis inhibitors on αSyn fibrils take-up by Neuro-2a cells (Neuro-2a cells [3]): inhibited in a dose-dependent manner
Hsc70-ATTO488: Hsc70 labeled with the aminoreactive fluorescent dye ATTO488							Kd (αSyn fibrils [7]): 0.49 ± 0.02 µM
